Source: paper PMC6421105 (Bioorganic & medicinal chemistry, 2019)

Assays:
T. cruzi (amastigotes) = test: T. cruzi amastigote assay; format: cell-based, Trypanosoma cruzi; conditions: for IC50: Trypanosoma cruzi, Vero, 72 h, read-out: T. cruzi (amastigotes) ED50; for Antiparasitic activity against intracellular T. cruzi (in words): amastigotes
intracellular T. cruzi = conditions: racemic mixture; cited from earlier work
Vero cells = format: cell-based; conditions: for Cytotoxicity at 15 µM / Cytotoxicity at 20 µM: 72 h; for Cytotoxicity ED50: treatment for 72 h
truncated TcSQS = conditions: soluble enzyme cloned and expressed in Escherichia coli; cited from earlier work
[1] = tested on: mitochondrial and glycosomal TcSQS (wild type); conditions: membrane protein; cited from earlier work

Compound: N#C[Se]CC1Cc2ccc(Oc3ccccc3)cc2O1 (racemic) [(±)-8]
- IC50 (T. cruzi (amastigotes)): 0.0939 ± 0.025 µM
- ED50 against intracellular T. cruzi (intracellular T. cruzi): 0.083 µM

Compound: FC(F)(F)SCCOc1ccc(Oc2ccccc2)cc1 [Compound 9, (2-(4-Phenoxyphenoxy)ethyl)(trifluoromethyl)sulfane]
- IC50 (T. cruzi (amastigotes)): > 10 µM

Compound: FC(F)(F)[Se]CCOc1cccc(Oc2ccccc2)c1 [Compound 12, (2-(3-Phenoxyphenoxy)ethyl)(trifluoromethyl)selane]
- IC50 (T. cruzi (amastigotes)): > 1 µM

Compound: N#CCCOc1ccc(Oc2ccccc2)cc1 [Compound 13, 4-Phenoxyphenoxyethyl cyanide]
- IC50 (T. cruzi (amastigotes)): > 10 µM
- Antiparasitic activity against intracellular T. cruzi (in words) (T. cruzi (amastigotes)): inactive

Compound: N#CCCCOc1ccc(Oc2ccccc2)cc1 [Compound 14, 3-(4-Phenoxyphenoxy)propyl cyanide]
- IC50 (T. cruzi (amastigotes)): > 10 µM
- Antiparasitic activity against intracellular T. cruzi (in words) (T. cruzi (amastigotes)): inactive

Compound: COc1ccc(OCC[Se]C#N)cc1 [Compound 20, 4-Methoxyphenoxyethyl selenocyanate]
- Cytotoxicity at 15 µM (Vero cells): ^**cytotoxic at 20 µM, 15 µM
- Cytotoxicity at 20 µM (Vero cells): ^**cytotoxic at 20 µM, 15 µM
- IC50 (T. cruzi (amastigotes)): > 10 µM
- T. cruzi (amastigotes) inhibition at 6 µM (T. cruzi (amastigotes); at 6 µM): no inhibition

Compound: N#C[Se]CCOc1ccccc1 [Compound 21, Phenoxyethyl selenocyanate]
- Cytotoxicity at 20 µM (Vero cells): ^**cytotoxic at 20 µM
- IC50 (T. cruzi (amastigotes)): > 10 µM

Compound: N#C[Se]CCOc1ccc([N+](=O)[O-])cc1 [Compound 22, 4-Nitrophenoxyethyl selenocyanate]
- Cytotoxicity at 15 µM (Vero cells): ^**cytotoxic at 20 µM, 15 µM
- Cytotoxicity at 20 µM (Vero cells): ^**cytotoxic at 20 µM, 15 µM
- IC50 (T. cruzi (amastigotes)): 3.87 ± 1.3 µM

Compound: N#C[Se]CCOc1ccccc1Oc1ccccc1 [Compound 43, 2-Phenoxyphenoxyethyl selenocyanate]
- IC50 (T. cruzi (amastigotes)): > 10 µM
- Antiparasitic activity against intracellular T. cruzi (in words) (T. cruzi (amastigotes)): free of anti-T. cruzi activity

Compound: N#CSCCOc1ccccc1Oc1ccccc1 [Compound 44, 2-Phenoxyphenoxyethyl thiocyanate]
- IC50 (T. cruzi (amastigotes)): > 10 µM
- Antiparasitic activity against intracellular T. cruzi (in words) (T. cruzi (amastigotes)): free of anti-T. cruzi activity

Compound: N#CSCCOc1ccc(Oc2ccccc2)cc1 [WC-9, 4-Phenoxyphenoxyethyl Thiocyanate]
- Inhibition of truncated TcSQS (in words) (truncated TcSQS): inactive
- Inhibition of TcSQS enzymatic activity (in words) [1]: non-competitive nanomolar inhibitor

Compound: O=C(Cn1ccnc1[N+](=O)[O-])NCc1ccccc1 [benznidazole, reference compound]
- IC50 (T. cruzi (amastigotes)): 2.48 ± 0.45 µM

Compound: (2-(3-Phenoxyphenoxy)ethyl)(trifluoromethyl)sulfane [Compound 10]
- Cytotoxicity ED50 (Vero cells): > 20 µM
- T. cruzi (amastigotes) % inhibition at 1.0 µM (T. cruzi (amastigotes); at 1.0 µM): 6.7%

Compound: (2-(4-Phenoxyphenoxy)ethyl)(trifluoromethyl)selane [Compound 11]
- Cytotoxicity ED50 (Vero cells): > 20 µM
